Results published in patent US20240173419A1, “CDK2 DEGRADERS AND USES THEREOF” (Kymera Therapeutics, Inc., priority 2022, published 2024).

Biological target: T1, CDK2 (Homo sapiens, UniProt P24941)
T1 construct: endogenous in cells; host or cells: MKN1 cells
Assay: CDK2 degradation in MKN1 cells (AlphaLISA)
Type: cell-based
Parameters: key to CDK2 degradation 14 h: Mean external-Abs DC50 (nM): A (<100 nM); B (≥100-500 nM); C (>500-1000 nM); D (>1000 nM); E (not achieved)
Conditions: 14 h incubation; for DC50: read-out: CDK2 degradation 14 h: Mean external-Abs DC50
In short: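 MKN1 cells (2e4/well) treated 14 h at 37° C with 11-point 1:5 dilutions (0.001 nM-10 μM, 0.1% DMSO). CDK2 in lysates quantified by AlphaLISA, no-cell background subtracted; DC50 from four-parameter logistic fit.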

CDK2 degradation 14 h: Average Dmax %	DC50 [nM]	CDK2 degradation 14 h: Mean external-Abs DC50 (nM)	Structure (SMILES)
A (A (>75% o))	< 100	–	Cc1cc(S(=O)(=O)NC2CCC(CN3CCN(c4ccc(C5CCC(=O)NC5=O)cc4C)CC3)CC2)ccc1Nc1ncc(C(F)(F)F)c(N2CCCC(C)(O)C2)n1 (stereo not drawn) [I-811]
A (A (>75% o))	< 100	–	Cc1cc(S(=O)(=O)NC2CCC(CN3CCN(c4ccc(C5CCC(=O)NC5=O)c(C)c4F)CC3)CC2)ccc1Nc1ncc(C(F)(F)F)c(N2CCCC(C)(O)C2)n1 (stereo not drawn) [I-812]
A (A (>75% o))	< 100	–	Cc1cc(S(=O)(=O)NC2CCC(CN3CCN(c4ccc5c(c4F)n(C)c(=O)n5C4CCC(=O)NC4=O)CC3)CC2)ccc1Nc1ncc(C(F)(F)F)c(N2CCCC(C)(O)C2)n1 (stereo not drawn) [I-813]
A (A (>75% o))	< 100	–	Cc1cc(S(=O)(=O)NC2(C)CCC(CN3CCN(c4ccc(C5CCC(=O)NC5=O)cc4F)CC3)CC2)ccc1Nc1ncc(C(F)(F)F)c(N2CCC[C@](C)(O)C2)n1 (stereo partly drawn) [I-814]
A (A (>75% o))	< 100	–	Cc1cc(S(=O)(=O)NC2CCC(F)(CN3CCN(c4ccc(C5CCC(=O)NC5=O)cc4F)CC3)CC2)ccc1Nc1ncc(C(F)(F)F)c(N2CCC[C@](C)(O)C2)n1 (stereo partly drawn) [I-815]
A (A (>75% o))	< 100	–	COc1cc(N2CCN(CC3CCC(NS(=O)(=O)c4ccc(Nc5ncc(C(F)(F)F)c(N6CCCC(C)(O)C6)n5)c(C)c4)CC3)CC2)c(F)cc1NC1CCC(=O)NC1=O (stereo not drawn) [I-816]
A (A (>75% o))	< 100	–	O=C1CCC(c2ccc(N3CCN(C[C@H]4CC[C@H](NS(=O)(=O)c5ccc(Nc6ncc(C(F)(F)F)c(-c7cnn(C8CCOCC8)c7)n6)c(F)c5)CC4)CC3)cc2Cl)C(=O)N1 (stereo partly drawn) [I-818]
B (B (>50% -75%))	500 to 1000	–	Cc1cc(S(=O)(=O)C2CC3(CCN(CC4CCN(c5cccc6c5n(C)c(=O)n6C5CCC(=O)NC5=O)CC4)CC3)C2)ccc1Nc1ncc(C(F)(F)F)c(N2CCCC(C)(O)C2)n1 (stereo not drawn) [I-819]
A (A (>75% o))	< 100	–	Cc1cc(S(=O)(=O)NC2CCC(CN3CCN(c4ccc(NC5CCC(=O)NC5=O)cc4F)CC3)CC2)ccc1Nc1ncc(C(F)(F)F)c(N2CCCC(C)(O)C2)n1 (stereo not drawn) [I-822]
A (A (>75% o))	< 100	–	Cc1cc(S(=O)(=O)N2CCC(CN(C)C3CCN(c4cccc5c4n(C)c(=O)n5C4CCC(=O)NC4=O)CC3F)CC2)ccc1Nc1ncc2cc(Cl)c(=O)n(C3CCCC3)c2n1 (stereo not drawn) [I-823]
D (D (<25%))	–	E	Cc1cc(S(=O)(=O)N2CC3(CCC(CN4CCN(c5ccc6c(c5F)n(C)c(=O)n6C5CCC(=O)NC5=O)CC4)CC3)C2)ccc1Nc1ncc2cc(Cl)c(=O)n(C3CCCC3)c2n1 (stereo not drawn) [I-824]
D (D (<25%))	> 1000	–	Cc1cc(S(=O)(=O)C2CC3(CCN(CC4CCN(c5ccc6c(c5F)n(C)c(=O)n6C5CCC(=O)NC5=O)CC4)CC3)C2)ccc1Nc1cc2cnc(Cl)cc2n(C2CCCC2)c1=O (stereo not drawn) [I-825]
B (B (>50% -75%))	< 100	–	Cc1cc(S(=O)(=O)C2CC3(CCN(CCN4CCN(c5ccc6c(c5F)n(C)c(=O)n6C5CCC(=O)NC5=O)CC4)CC3)C2)ccc1Nc1ncc2cc(Cl)c(=O)n(C3CCCC3)c2n1 (stereo not drawn) [I-826]
A (A (>75% o))	< 100	–	Cc1cc(S(=O)(=O)N[C@H](C)CO[C@H]2CC[C@H](CN3CCN(c4ccc5c(c4F)n(C)c(=O)n5C4CCC(=O)NC4=O)CC3)CC2)ccc1Nc1ncc2ccc(=O)n(C3CCCC3)c2n1 (stereo partly drawn) [I-827]
A (A (>75% o))	< 100	–	Cc1cc(S(=O)(=O)N[C@@H](C)CO[C@H]2CC[C@H](CN3CCN(c4ccc5c(c4F)n(C)c(=O)n5C4CCC(=O)NC4=O)CC3)CC2)ccc1Nc1ncc2ccc(=O)n(C3CCCC3)c2n1 (stereo partly drawn) [I-828]
D (D (<25%))	–	E	Cc1cc(S(=O)(=O)N2CCC(N3CCC(F)(CN(C)c4ccc5c(c4F)n(C)c(=O)n5C4CCC(=O)NC4=O)CC3)CC2)ccc1Nc1ncc2ccc(=O)n(C3CCCC3)c2n1 (stereo not drawn) [I-829]
A (A (>75% o))	< 100	–	Cc1cc(S(=O)(=O)NC2CC(N3CCN(CC4CCN(c5ccc6c(c5F)n(C)c(=O)n6C5CCC(=O)NC5=O)CC4)CC3)C2)ccc1Nc1ncc(C(F)(F)F)c(N2CCCC(C)(O)C2)n1 (stereo not drawn) [I-830]
A (A (>75% o))	< 100	–	Cc1cc(S(=O)(=O)NC2CC(N3CCN(CC4CCN(c5ccc6c(c5F)n(C)c(=O)n6C5CCC(=O)NC5=O)CC4)CC3)C2)ccc1Nc1ncc(C(F)(F)F)c(N2CCCC(C)(O)C2)n1 (stereo not drawn) [I-831]
